Test [1] deals with T1, 17-beta-hydroxysteroid dehydrogenase type 1 (Homo sapiens) (UniProt P14061).
T1 sequence (whole entry): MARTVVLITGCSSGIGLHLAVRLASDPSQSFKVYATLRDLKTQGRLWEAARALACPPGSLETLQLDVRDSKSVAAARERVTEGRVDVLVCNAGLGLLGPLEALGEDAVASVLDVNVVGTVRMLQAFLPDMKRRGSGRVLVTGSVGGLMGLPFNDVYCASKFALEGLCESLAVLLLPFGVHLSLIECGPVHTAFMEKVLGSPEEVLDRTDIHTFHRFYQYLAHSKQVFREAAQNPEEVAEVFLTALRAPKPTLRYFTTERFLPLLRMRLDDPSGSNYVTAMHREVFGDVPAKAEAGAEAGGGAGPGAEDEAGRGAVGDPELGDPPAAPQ
Briefly: Inhibition of 17beta-HSD1 in human T47D cells expressing estrogen receptor assessed as conversion of [14C]-E1 to [14C]-E2 at 0.3 uM after 24 hrs. The test is classed as cell-based.

In test [2] the test system is T47D. In words: Estrogenic activity in human T47D cells expressing estrogen receptor assessed as stimulation cell growth at 1 uM after 7 days relative to control.
The test system of test [3] is T47D. Briefly: Estrogenic activity in human T47D cells expressing estrogen receptor assessed as stimulation cell growth at 0.1 uM after 7 days relative to control.
The target of test [4] is T1, 17-beta-hydroxysteroid dehydrogenase type 1 (Homo sapiens). In words: Inhibition of 17beta-HSD1 in human T47D cells expressing estrogen receptor assessed as conversion of [14C]-E1 to [14C]-E2 at 5 uM after 24 hrs. The format is cell-based.
For test [5], the target named is T2, 17-beta-hydroxysteroid dehydrogenase type 1 (Homo sapiens, UniProt P14061).
T2 sequence (P14061 whole entry): T1 sequence (whole entry)
Briefly: Inhibition of 17beta-HSD1 in human T47D cells expressing estrogen receptor assessed as conversion of [14C]-E1 to [14C]-E2 after 24 hrs. The test is classed as cell-based.

The source made the active and inactive calls. No cut-off for these calls is given here.

This note sets out measurements from ChEMBL document CHEMBL1828522, “Synthesis and preliminary evaluation of a modified estradiol-core bearing a fused γ-lactone as non-estrogenic inhibitor of 17β-hydroxysteroid dehydrogenase type 1” (Bioorg Med Chem Lett, 2011).

On to `C[C@]12CC[C@@H]3c4ccc(O)cc4CC[C@H]3[C@@H]1C[C@H](Cc1cccc(C(N)=O)c1)[C@@H]2O`, for which the inhibition is 85% in test [1] and 90% in test [4]. The Activity is reported as 83% with T47D [2] and 48% in the test with T47D [3].
As to `C[C@]12CC[C@@H]3c4ccc(O)cc4CC[C@H]3[C@@H]1C[C@@H]1[C@@H](Cc3cccc(C(N)=O)c3)C(=O)O[C@@H]12`, the IC50 in test [5] worked out at 1 µM. Further, the inhibition in test [1] stood at 20%; in test [4], 75%. In addition, the result with T47D [2] and in the test with T47D [3] was inactive.
